In ChEMBL document CHEMBL1857833, “Screening and optimization of specific chemical series against human African Trypanosomiasis (HAT)”:
In brackets after ≈: the same amount, converted by molar mass. Several values for one entry are separate records, joined by “and”; a condition that tells them apart may be missing. Equal entries are not always repeated.

Tests used:
[1] = DNDI: in vitro intrinsic clearance in mouse liver microsomes at a concentration of 10uM; type: ADME, Microsome; settings: read-out: CLint in vitro
[2] = DNDI: half life in mouse liver microsomes at a concentration of 10uM; type: ADME, Microsome
[3] = DNDI: Lipophilicity measured in Chromatographic hydrophobicity index (CHI) assay, pH 7.4; type: physicochemical; settings: buffer
[4] = system: Trypanosoma cruzi; assay: DNDI: Inhibition of Chagas Disease parasite Trypanosoma cruzi (Tulahuen LacZ, Clone C4), in vitro.; type: functional, organism-based
[5] = DNDI: Cytotoxicity against L929 mouse fibroblasts, 72 hour.; type: toxicity, cell-based; settings: mouse, L929 mouse fibroblasts
[6] = DNDI: Solubility in phosphate buffered saline at pH7.4 measured by optical density (turbidimetry) at room temperature (OD-RT); type: physicochemical; settings: pH 7.4
[7] = system: Trypanosoma brucei; assay: DNDI: Inhibition of Human African Trypanosomiasis, SBRI 427, in vitro; type: functional, organism-based
[8] = DNDI: Cytotoxicity against L-6 rat myoblasts from skeletal muscle cells; type: toxicity, cell-based, L6; settings: L-6 rat skeletal muscle myoblasts
[9] = DNDI: half life in human liver microsomes at a concentration of 10uM; type: ADME, Microsome
[10] = DNDI: % of compound remaining in rat S9 microsomes at a concentration of 1uM; type: ADME, subcellular, Liver, S9 fraction
[11] = mouse, microsomes, 1 µM
Description: (§2) DNDI: in vitro intrinsic clearance in mouse liver microsomes at a concentration of 1uM

[12] = system: Plasmodium falciparum; assay: DNDI: Inhibition of the malaria parasite Plasmodium falciparum, in vitro; type: functional, organism-based; settings: K1
[13] = in vitro; settings: mouse, t (1 / 2)
Description: (§3) DNDI: half life in mouse liver microsomes at a concentration of 1uM

[14] = system: Leishmania donovani; assay: DNDI: Inhibition of formation of Leishmania donovani (strain MHOM/ET/67/L82) axenic amastigotes, in vitro.; type: functional, organism-based
[15] = DNDI: Cytotoxicity against L929 mouse fibroblasts, CYTO-SP, 24 hour; type: toxicity, cell-based; settings: mouse, L929 mouse fibroblasts
[16] = DNDI: in vitro intrinsic clearance in human liver microsomes at a concentration of 10uM; type: ADME, Microsome
[17] = DNDI: % of compound remaining in mouse S9 microsomes at a concentration of 1uM after 60 mins; type: ADME, subcellular, Liver, S9 fraction
[18] = system: Trypanosoma brucei rhodesiense; assay: DNDI: Inhibition of Human African Trypanosomiasis (HAT), STIB 900, in vitro; type: functional, organism-based
[19] = system: Trypanosoma brucei; assay: (§1) DNDI: Mean survival time in days (MSD) of mice after intraperitoneal injection of Human African Trypanosomiasis (HAT), EATRO 110, in vivo at 20 mg/kg/day for 4 days.; type: functional, Mus musculus
[20] = DNDI: Solubility in phosphate buffered saline at pH7.4 measured by nephelometry at room temperature (NEPH-RT); type: physicochemical; settings: pH 7.4
[21] = in vitro; settings: mouse
Description: as §2

[22] = in vitro; settings: human, liver microsomes, t (1 / 2)
Description: DNDI: half life in human liver microsomes at a concentration of 1uM

[23] = in vitro; settings: human, liver microsomes, CLint in vitro
Description: DNDI: in vitro intrinsic clearance in human liver microsomes at a concentration of 1uM

[24] = system: Trypanosoma brucei; assay: DNDI: Inhibition of Human African Trypanosomiasis, Cross 22, in vitro; type: functional, organism-based
[25] = mouse, microsomes, 1 µM; remark: listed apart in the source
Description: as §3

[26] = system: Trypanosoma brucei; assay: as §1; type: functional, Mus musculus; remark: listed apart in the source
[27] = Trypanosoma brucei, SBRI 427, read-out: IC50

SMILES | IC50 [7, 27] [µg/mL] | remaining at 1 µM [10] [%] | CLint in vitro [11] | half-life at 1 µM ([13]; liver microsomes) [h] | remaining at 1 h, 1 µM [17] [%] | IC50 [24] [µg/mL] | chromatographic logD [3] | IC50 at 72 h [5] [µg/mL] | IC50 at 24 h [15] [µg/mL] | MSD [19] [days] | solubility kinetic [20] [µM] | other results
CCCCc1ccc(-c2nc(CNCc3c(OC)cccc3OC)co2)cc1 | 0.32 (≈ 0.841 µM) | 0.169 | 65 µL/min/mg | 0.217 | 18.7 | – | > 5.2 | 1.62 (≈ 4.26 µM) | – | 4.5 | 6 (≈ 2.28 µg/mL) | –
COc1ccccc1CNC(CCc1ccccc1)c1nc(Cc2ccccc2)c(N2CCCCC2)o1 (configuration not stated) | 4.41 (≈ 8.9 µM) | – | 487 µL/min/mg | 0.0333 | – | – | – | 8.24 (≈ 16.6 µM) | – | – | 2 (≈ 0.991 µg/mL) | microsomal CLint at 1 µM ([21]; liver microsomes): 471 µL/min/mg
CCCCCC(C)NCc1coc(-c2ccc(CCCC)cc2)n1 (configuration not stated) | – | – | 11 µL/min/mg | – | – | 0.3 (≈ 0.913 µM) | 5.51 | 1.48 (≈ 4.51 µM) | > 50 | 3.4 | – | microsomal CLint at 10 µM [1]: 16 µL/min/mg; half-life at 10 µM [2]: 2.98 h; IC50 [4]: 2.8 µg/mL (≈ 8.52 µM); solubility kinetic [6]: 1.6 µM (≈ 0.526 µg/mL); IC50 [8]: 2.31 µg/mL (≈ 7.03 µM); half-life at 10 µM [9]: 1.62 h; microsomal CLint at 1 µM ([21]; microsomes): 12 µL/min/mg; IC50 [12]: 0.647 µg/mL (≈ 1.97 µM); half-life at 1 µM ([13]; microsomes): 1.22 h; IC50 [14]: 5.25 µg/mL (≈ 16 µM); t (1 / 2) [25]: 81 min; CLint in vitro [16]: 30 µL/min/mg; IC50 [18]: 0.186 µg/mL (≈ 0.566 µM)
CC(C)Oc1ccc(-c2nc(CNC3CCCCCC3)co2)cc1 | 2.39 (≈ 7.28 µM) | – | 12 µL/min/mg | 1.13 | – | – | – | 6.77 (≈ 20.6 µM) | – | 4 | – | MSD [26]: 4 days
CCCCCC(C)NCc1coc(-c2ccc(OC(CC)CC)cc2)n1 (configuration not stated) | 0.36 (≈ 1 µM) | – | 2 µL/min/mg | 7.93 | – | – | – | 0.85 (≈ 2.37 µM) | – | 4 | 1 (≈ 0.359 µg/mL) | MSD [26]: 4 days

Second part, led by results:

IC50 [7, 27] [µg/mL] | remaining at 1 µM [10] [%] | CLint in vitro [11] | half-life at 1 µM ([13]; liver microsomes) [h] | remaining at 1 h, 1 µM [17] [%] | IC50 [24] [µg/mL] | SMILES | chromatographic logD [3] | IC50 at 72 h [5] [µg/mL] | IC50 at 24 h [15] [µg/mL] | MSD [19] [days] | solubility kinetic [20] [µM] | other results
0.52 (≈ 2.09 µM) | 0 | 40 µL/min/mg | 0.35 | 1.05 | – | COc1ccccc1/C(=N/O)NC1CCCCC1 | 3.6 | > 10 | > 50 | – | – | microsomal CLint at 10 µM [1]: 91 µL/min/mg; half-life at 10 µM [2]: 0.533 h; IC50 [4]: > 30 µg/mL; solubility kinetic [6]: > 200 µM; IC50 [8]: 62.3 µg/mL (≈ 251 µM); half-life at 10 µM [9]: 2.13 h; IC50 [12]: 3.7 µg/mL (≈ 14.9 µM); IC50 [14]: 17 µg/mL (≈ 68.5 µM); CLint in vitro [16]: 23 µL/min/mg; IC50 [18]: 7.46 µg/mL (≈ 30 µM)
0.38 (≈ 1.11 µM) | – | 32 µL/min/mg and 11 µL/min/mg | – | – | 0.4 (≈ 1.17 µM) | CCCCOc1ccc(-c2nc(CNC3CCCCCC3)co2)cc1 | 5.34 | < 3.13 | 11.7 (≈ 34.2 µM) | – | < 1 | half-life at 1 µM [22]: 0.383 h; microsomal CLint at 1 µM [23]: 38 µL/min/mg; IC50 [7]: 0.3 µg/mL and 0.39 µg/mL; t (1 / 2) [25]: 26 min and 78 min
0.33 (≈ 0.92 µM) | 0.555 | 13 µL/min/mg | 1.13 | 49.7 | – | CCCCCOc1ccc(-c2nc(CNC(C)CCCCC)co2)cc1 (configuration not stated) | – | < 3.13 | 32.4 (≈ 90.4 µM) | – | – | –
0.27 (≈ 0.721 µM) | 105 | 6 µL/min/mg | 2.57 | 112 | 0.25 (≈ 0.668 µM) | CC1CC(NCc2coc(-c3ccc(-c4ccccc4)cc3)n2)CC(C)(C)C1 (configuration not stated) | – | < 3.13 | 7.93 (≈ 21.2 µM) | – | – | IC50 [7]: 0.24 µg/mL and 0.16 µg/mL
